Test results from patent US20250346597A1, “CONDENSED HETEROCYCLIC COMPOUNDS AS INHIBITOR OF DIACYLGLYCEROL KINASES” (BEONE MEDICINES I GMBH, priority 2023, published 2025).

Key:
DGKζ = DGKζ (Homo sapiens (Human), UniProt Q13574); assay: Biochemical DGK IC50 assay (ADP-Glo, lipid micelle substrate), DGKζ; conditions: full length DGKζ 0.5 nM, ATP 140 μM, DAG 80 μM
In short: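 ADP-Glo luminescence measured ADP made in a 1 h room-temperature reaction. The enzyme was Sf9-expressed, purified full-length human DGKζ, and the substrate was DAG/PS micelles. Assay buffer held 50 mM HEPES, 10 mM MgCl2, 0.01 mM CaCl2, 0.1 mM Na3VO4 and 0.01% BSA. IC50 was derived from activity inhibition over a compound concentration series.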

DGKα = DGKα (Homo sapiens (Human), UniProt P23743); assay: Biochemical DGK IC50 assay (ADP-Glo, lipid micelle substrate), DGKα; conditions: full length DGKα […], ATP 140 μM, DAG 80 μM; further: full length DGKα 7.5 nM
In short: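 Luminescent ADP-Glo detection followed a 1 h room-temperature reaction of full-length DGKα on DAG/PS micelles, in HEPES buffer with 10 mM MgCl2, 0.01 mM CaCl2, 0.1 mM Na3VO4, BSA and Tween-20. IC50 derived from inhibition across increasing compound concentrations.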

Sequence of DGKζ (Q13574 other isoform, or with tags, fused parts or gaps): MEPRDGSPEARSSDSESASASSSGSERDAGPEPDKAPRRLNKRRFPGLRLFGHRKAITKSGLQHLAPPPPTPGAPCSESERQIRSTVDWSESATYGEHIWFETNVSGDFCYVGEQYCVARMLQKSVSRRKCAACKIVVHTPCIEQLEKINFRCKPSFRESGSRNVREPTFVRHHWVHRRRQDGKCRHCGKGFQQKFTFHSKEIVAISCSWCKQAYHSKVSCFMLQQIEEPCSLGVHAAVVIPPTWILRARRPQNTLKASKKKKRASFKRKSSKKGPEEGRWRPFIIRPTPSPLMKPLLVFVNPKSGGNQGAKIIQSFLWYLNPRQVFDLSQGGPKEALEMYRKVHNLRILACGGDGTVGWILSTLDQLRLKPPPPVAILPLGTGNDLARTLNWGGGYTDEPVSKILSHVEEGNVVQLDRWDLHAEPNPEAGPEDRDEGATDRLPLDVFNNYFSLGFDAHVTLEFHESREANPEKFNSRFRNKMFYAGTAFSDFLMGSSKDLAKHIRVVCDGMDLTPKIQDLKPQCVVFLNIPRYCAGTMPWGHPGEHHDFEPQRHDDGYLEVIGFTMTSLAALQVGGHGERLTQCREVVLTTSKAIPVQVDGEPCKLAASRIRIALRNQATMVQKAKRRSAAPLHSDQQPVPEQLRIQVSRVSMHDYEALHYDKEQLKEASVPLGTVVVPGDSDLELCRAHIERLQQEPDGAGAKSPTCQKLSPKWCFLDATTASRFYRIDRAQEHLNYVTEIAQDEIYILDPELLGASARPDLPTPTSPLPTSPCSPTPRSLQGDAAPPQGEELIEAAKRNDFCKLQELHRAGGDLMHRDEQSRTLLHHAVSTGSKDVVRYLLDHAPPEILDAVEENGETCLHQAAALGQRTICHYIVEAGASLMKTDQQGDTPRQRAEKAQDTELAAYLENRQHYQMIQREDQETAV
Sequence of DGKα (P23743 whole entry): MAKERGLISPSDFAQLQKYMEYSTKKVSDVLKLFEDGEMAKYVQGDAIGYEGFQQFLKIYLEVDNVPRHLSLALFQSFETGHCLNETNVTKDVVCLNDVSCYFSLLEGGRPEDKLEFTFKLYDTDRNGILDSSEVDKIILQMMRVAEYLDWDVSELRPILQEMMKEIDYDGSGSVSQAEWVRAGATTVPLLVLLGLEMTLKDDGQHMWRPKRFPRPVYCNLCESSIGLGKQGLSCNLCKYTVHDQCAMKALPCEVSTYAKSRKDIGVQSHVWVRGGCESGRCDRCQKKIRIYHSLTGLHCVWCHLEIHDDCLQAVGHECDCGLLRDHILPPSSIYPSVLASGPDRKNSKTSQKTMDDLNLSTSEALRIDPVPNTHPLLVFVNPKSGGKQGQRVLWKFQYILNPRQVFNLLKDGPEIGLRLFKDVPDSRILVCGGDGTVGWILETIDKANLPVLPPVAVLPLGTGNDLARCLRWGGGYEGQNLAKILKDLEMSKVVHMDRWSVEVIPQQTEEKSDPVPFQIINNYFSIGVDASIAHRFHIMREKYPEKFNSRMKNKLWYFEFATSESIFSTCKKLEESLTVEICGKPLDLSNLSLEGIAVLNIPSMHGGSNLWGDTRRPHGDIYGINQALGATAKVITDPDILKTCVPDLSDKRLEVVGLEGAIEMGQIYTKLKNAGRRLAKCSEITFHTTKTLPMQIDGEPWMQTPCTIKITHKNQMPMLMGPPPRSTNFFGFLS

Row | SMILES | IC50 (DGKζ) | IC50 (DGKα)
1 | CC[C@H]1CN(C(C)c2ccc(CC3COC3)cc2)[C@H](CC)CN1c1cc(=O)n(C)c2cn(CC#N)nc12 (stereo partly drawn) [Compound A183, 2-(7-((2S,5R)-2,5-diethyl-4-(1-(4-(oxetan-3-ylmethyl)phenyl)ethyl)piperazin-1-yl)-4-methyl-5-oxo-4,5-dihydro-2H-pyrazolo[4,3-b]pyridin-2-yl)acetonitrile] | 517 nM | 48.2 nM
2 | CC[C@H]1CN(C(C)c2ccc3c(c2)OCO3)[C@H](CC)CN1c1cc(=O)n(C)c2cn(CC#N)nc12 (stereo partly drawn) [Compound A185, 2-(7-((2S,5R)4-(1-(benzo[d][1,3]dioxol-5-yl)ethyl)-2,5-diethylpiperazin-1-yl)-4-methyl-5-oxo-4,5-dihydro-2H-pyrazolo[4,3-b]pyridin-2-yl)acetonitrile] | 66.4 nM | 164 nM
3 | CC[C@H]1CN(C(C)c2ccc(CC#N)cc2)[C@H](CC)CN1c1cc(=O)n(C)c2cn(CC#N)nc12 (stereo partly drawn) [Compound A190, 2-(4-(1-((2R,5S)-4-(2-(cyanomethyl)-4-methyl-5-oxo-4,5-dihydro-2H-pyrazolo[4,3-b]pyridin-7-yl)-2,5-diethylpiperazin-1-yl)ethyl)phenyl)acetonitrile] | 651 nM | 45 nM
4 | CC[C@H]1CN(C(C)c2ccc(C#N)cc2)[C@H](CC)CN1c1cc(=O)n(C)c2cn(CC#N)nc12 (stereo partly drawn) [Compound A191, 4-(1-((2R,5S)-4-(2-(cyanomethyl)-4-methyl-5-oxo-4,5-dihydro-2H-pyrazolo[4,3-b]pyridin-7-y)-2,5-diethylpiperazin-1-yl)ethyl)benzonitrile] | 285 nM | < 23.3 nM
5 | CC[C@H]1CN(C(C)c2cc3c(cn2)OCC3)[C@H](CC)CN1c1cc(=O)n(C)c2cn(CC#N)nc12 (stereo partly drawn) [Compound A196, 2-(7-((2S,5R)-4-(1-(2,3-dihydrofuro[2,3-c]pyridin-5-yl)ethyl)-2,5-diethylpiperazin-1-yl)-4-methyl-5-oxo-4,5-dihydro-2H-pyrazolo[4,3-b]pyridin-2-yl)acetonitrile] | 552 nM | 1020 nM
6 | CC[C@H]1CN(C(C)c2ccc(CS(C)(=O)=O)cc2)[C@H](CC)CN1c1cc(=O)n(C)c2cn(CC#N)nc12 (stereo partly drawn) [Compound A198, 2-(7-((2S,5R)-2,5-diethyl-4-(1-(4-((methylsulfonyl)methyl)phenyl)ethyl)piperazin-1-yl)-4-methyl-5-oxo-4,5-dihydro-2H-pyrazolo[4,3-b]pyridin-2-yl)acetonitrile] | 5560 nM | 91 nM
7 | CC[C@H]1CN(C(C)c2ccc(C(C)(F)F)nc2)[C@H](CC)CN1c1cc(=O)n(C)c2cn(CC#N)nc12 (stereo partly drawn) [Compound A199, 2-(7-((2S,5R)-4-(1-(6-(1,1-difluoroethyl)pyridin-3-yl)ethyl)-2,5-diethylpiperazin-1-yl)-4-methyl-5-oxo-4,5-dihydro-2H-pyrazolo[4,3-b]pyridin-2-yl)acetonitrile] | 112 nM | 2170 nM
8 | CC[C@H]1CN(C(C)c2ccc(OC3CC3)cn2)[C@H](CC)CN1c1cc(=O)n(C)c2cn(CC#N)nc12 (stereo partly drawn) [Compound A201, 2-(7-((2S,5R)-4-(1-(5-cyclopropoxypyridin-2-yl)ethyl)-2,5-diethylpiperazin-1-yl)-4-methyl-5-oxo-4,5-dihydro-2H-pyrazolo[4,3-b]pyridin-2-yl)acetonitrile] | 123 nM | 43 nM
9 | CC[C@H]1CN(C(C)c2ccc(COC)cc2)[C@H](CC)CN1c1cc(=O)n(C)c2cn(CC#N)nc12 (stereo partly drawn) [Compound A205, 2-(7-((2S,5R)-2,5-diethyl-4-(1-(4-(methoxymethyl)phenyl)ethyl)piperazin-1-yl)-4-methyl-5-oxo-4,5-dihydro-2H-pyrazolo[4,3-b]pyridin-2-yl)acetonitrile] | 142 nM | 215 nM

More lines, now with the values ahead:

Row | IC50 (DGKζ) | IC50 (DGKα) | SMILES
10 | 579 nM | 729 nM | CC[C@H]1CN(C(C)c2ccc(CN3CCS(=O)(=O)CC3)cc2)[C@H](CC)CN1c1cc(=O)n(C)c2cn(CC#N)nc12 (stereo partly drawn) [Compound A192, 2-(7-((2S,5R)-4-(1-(4-((1,1-dioxidothiomorpholino)methyl)phenyl)ethyl)-2,5-diethylpiperazin-1-yl)-4-methyl-5-oxo-4,5-dihydro-2H-pyrazolo[4,3-b]pyridin-2-yl)acetonitrile]
11 | 252 nM | 711 nM | CC[C@H]1CN(C(C)c2ccc3c(c2)OC(F)(F)O3)[C@H](CC)CN1c1cc(=O)n(C)c2cn(CC#N)nc12 (stereo partly drawn) [Compound A197, 2-(7-((2S,5R)-4-(1-(2,2-difluorobenzo[d][1,3]dioxol-5-yl)ethyl)-2,5-diethylpiperazin-1-yl)-4-methyl-5-oxo-4,5-dihydro-2H-pyrazolo[4,3-b]pyridin-2-yl)acetonitrile]
12 | 991 nM | < 23.3 nM | CC#CCn1cc2c(n1)c(N1C[C@@H](CC)N(C(C)c3ccc4c(n3)OCC4)C[C@@H]1C)cc(=O)n2C (stereo partly drawn) [Compound A200, 2-(but-2-yn-1-yl)-7-((2S,5R)-4-(1-(2,3-dihydrofuro[2,3-b]pyridin-6-yl)ethyl)-5-ethyl-2-methylpiperazin-1-yl)-4-methyl-2,4-dihydro-5H-pyrazolo[4,3-b]pyridin-5-one]
13 | 3210 nM | 352 nM | CC[C@H]1CN(C(C)c2ccc(C(=O)N3CCC(OC)C3)cc2)[C@H](CC)CN1c1cc(=O)n(C)c2cn(CC#N)nc12 (stereo partly drawn) [Compound A202, 2-(7-((2S,5R)-2,5-diethyl-4-(1-(4-(3-methoxypyrrolidine-1-carbonyl)phenyl)ethyl)piperazin-1-yl)-4-methyl-5-oxo-4,5-dihydro-2H-pyrazolo[4,3-b]pyridin-2-yl)acetonitrile]
